Consider 1 compound from patent US10111877B2, “Modulators of androgen synthesis” (Tangent Reprofiling Limited, priority 2012, dated 2018).

SMILES strings stand for the structures.

The data set concerns BxPC-3 cells. Kind of data set: Orthotopic pancreatic tumor mouse xenograft model. To be noted: 60 mg/kg intraperitoneal every third day. On the set-up: key to Pancreatic tumor weight, vs vehicle / Bioluminescence imaging Area, vs vehicle / Bioluminescence imaging Average radiation, vs vehicle / Bioluminescence imaging Total flux, vs vehicle / Bioluminescence imaging Area (day 34), vs vehicle / Bioluminescence imaging Average radiation (day 34), vs vehicle / Bioluminescence imaging Total flux (day 34), vs vehicle / Body weight curves, vs vehicle / Body weight at sacrifice relative to Day −1 body weight, vs vehicle: ***: statistically significant difference with p-value <0.001; **: p-value <0.01; *: p-value <0.05; p-value <0.1; NS: Non-Significant. It counts as in vivo, mice (athymic nude mice). As to the method:
Animals were divided into four groups of 10 mice each which underwent the following treatment regime: Group 1, daily oral administration of vehicle comprising 1% (v/v) ethanol, 20% (v/v) PEG 400, 79% (v/v) acid solution and 0.4% (w/v) TWEEN™ 80 at a final pH of 3.1-3.3 (Control); Group 2, intraperitoneal administration of 60 mg/kg of Reference Compound gemcitabine every third day for four rounds followed by one week rest before repeating the dosing; Group 3, daily oral administration of 1 mg/kg of Test Compound VAL401; and Group 4, daily administration of 2 mg/kg Test Compound VAL401. Administration of Test and Reference Compounds began on Day 1 and continued until Day 33. Body weights of the animals were measured two times a week throughout the in-life phase and blood samples for PK analyses were collected from saphenous vein from all animals 2 hours after compound administration at study Day 24. […] The animals were sacrificed at Day 34. At the termination, brain tissues were collected and frozen. Tumors were weighed, measured in three dimensions followed by fixation and embedding in paraffin for possible histopathological assessment. Also spleen, liver and lungs were collected for possible analysis.
Statistical analysis was performed with statistical software R (version 3.1.2). The parameters with multiple measurements in different time points per animal were analyzed using mixed-effects models and model contrasts. […] The obtained p-values values were adjusted for multiple comparisons if necessary. The continuous valued end-point parameters were analyzed using parametric or non-parametric test. If the groups were normally distributed with equal variance, parametric one-way ANOVA followed by Tukey's HSD post hoc test was used. If the assumptions were not fulfilled as such or after data transform (e.g. logarithmic), nonparametric Kruskal-Wallis test followed by Mann-Whitney U test was used.

Regarding `Nc1ccn([C@@H]2O[C@H](CO)[C@@H](O)C2(F)F)c(=O)n1` [Gemcitabine, gemcitabine], the “Bioluminescence imaging Area (day 34), vs vehicle” value is on record as “NS”; the “Bioluminescence imaging Area, vs vehicle” value is recorded as “NS”; the “Bioluminescence imaging Average radiation (day 34), vs vehicle” value is “NS”; the “Bioluminescence imaging Average radiation, vs vehicle” value was “NS”. The “Bioluminescence imaging Total flux (day 34), vs vehicle” value is “NS”; the “Bioluminescence imaging Total flux, vs vehicle” value was “NS”; the “Body weight at sacrifice relative to Day −1 body weight, vs vehicle” value is on record as “NS”; the “Body weight curves, vs vehicle” value was “NS”. Besides, the “Pancreatic tumor volume, vs vehicle” value is on record as “↓**” and the “Pancreatic tumor weight, vs vehicle” value is “NS”.
